Reference: patent US7524503B2, “Human cytomegalovirus (HCMV) cytotoxic T cell epitopes, polyepitopes compositions comprising same and diagnostic and prophylactic and therapeutic uses therefor” (priority 2001, dated 2009)

Columns and labels:
HLA B7 = biological target: T1, HLA B7 (Homo sapiens, UniProt P01889); assay type: cell-based; details: HLA B7 on transfected T2 cells; relative increase vs no peptide at 26° C.
T1 construct: expressed in transfected cells; host or cells: T2 cells

HLA B27 = assay: MHC stabilization assay on T2 cells; assay type: cell-based, human; details: HLA B27 on transfected T2 cells; relative increase vs no peptide at 26° C.
[1] = test system: PBMC from healthy HCMV seropositive donors; assay: IFN-γ ELISPOT assay; assay type: cell-based, human; details: peptide 10 μg/ml
In short: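 PBMC from healthy HCMV-seropositive donors (2.5×10^5 cells/well) were stimulated 18 h at 37° C with individual synthetic HCMV peptides (10 μg/ml) on anti-IFN-γ-coated nitrocellulose. IFN-γ spots were developed with biotinylated antibody and streptavidin-alkaline phosphatase and counted automatically. Counts were averaged over 3 wells, and no-peptide wells were subtracted.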

[2] = test system: peptide-sensitized autologous PHA blasts or LCLs; assay type: cell-based, human; parameters: key to CTL response: Y: Yes; ND: Not detected; details: predicted epitopes, Table 3
HLA B8 = assay: MHC stabilization assay on T2 cells; assay type: cell-based, human; details: HLA B8 on transfected T2 cells; relative increase vs no peptide at 26° C.

T1 sequence (P01889 25-362): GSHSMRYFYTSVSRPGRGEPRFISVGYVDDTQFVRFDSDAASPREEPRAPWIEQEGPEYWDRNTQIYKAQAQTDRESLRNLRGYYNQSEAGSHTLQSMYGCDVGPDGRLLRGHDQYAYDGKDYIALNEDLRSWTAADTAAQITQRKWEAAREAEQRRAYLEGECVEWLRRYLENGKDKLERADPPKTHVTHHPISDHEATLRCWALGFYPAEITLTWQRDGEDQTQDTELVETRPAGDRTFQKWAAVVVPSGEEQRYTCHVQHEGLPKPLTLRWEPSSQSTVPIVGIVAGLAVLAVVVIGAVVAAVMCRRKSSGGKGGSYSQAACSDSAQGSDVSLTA
T1 sequence (P61769 21-119, further chain): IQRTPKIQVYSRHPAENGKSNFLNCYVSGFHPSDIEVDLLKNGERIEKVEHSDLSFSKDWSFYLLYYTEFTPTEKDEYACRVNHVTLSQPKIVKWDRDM

Sequence: APVAGSMPEL (human cytomegalovirus US11 CTL epitope peptide)
- MSE (MHC stabilization efficiency) (HLA B7): +++ (+++ = 200-300%)

Sequence: APYQRDNFIL (human cytomegalovirus gH CTL epitope peptide)
- MSE (MHC stabilization efficiency) (HLA B7): +++ (+++ = 200-300%)

Sequence: ARVYEIKCR (human cytomegalovirus pp28 CTL epitope peptide)
- MSE (MHC stabilization efficiency) (HLA B27): − (− = 0-50%)
- ELISPOT Responses (SFC/10^6 PBMC) ([1]; donor fourteen): RK(148) SFC/10^6 PBMC
- CTL response [2]: Y

Sequence: CRYKYLRKK (human cytomegalovirus pp28 CTL epitope peptide)
- MSE (MHC stabilization efficiency) (HLA B27): − (− = 0-50%)

Sequence: ELKRKMMYM (human cytomegalovirus IE1 CTL epitope peptide)
- MSE (MHC stabilization efficiency) (HLA B8): − (− = 0-50%)
- ELISPOT Responses (SFC/10^6 PBMC) ([1]; donor eleven): 300 SFC/10^6 PBMC
- ELISPOT Responses (SFC/10^6 PBMC) ([1]; donor epsilon): SC(1000), SFC/10^6 PBMC
- ELISPOT Responses (SFC/10^6 PBMC) ([1]; donor gamma): 100 SFC/10^6 PBMC
- ELISPOT Responses (SFC/10^6 PBMC) ([1]; donor sixteen): 4999 SFC/10^6 PBMC
- ELISPOT Responses (SFC/10^6 PBMC) ([1]; donor three): 1992 SFC/10^6 PBMC
- CTL response [2]: Y

Sequence: ELRRKMMYM (human cytomegalovirus IE1 CTL epitope peptide)
- MSE (MHC stabilization efficiency) (HLA B8): ++ (++ = 100-199%)
- ELISPOT Responses (SFC/10^6 PBMC) ([1]; donor eleven): 430 SFC/10^6 PBMC
- ELISPOT Responses (SFC/10^6 PBMC) ([1]; donor epsilon): 1243 SFC/10^6 PBMC
- ELISPOT Responses (SFC/10^6 PBMC) ([1]; donor one): 145 SFC/10^6 PBMC
- ELISPOT Responses (SFC/10^6 PBMC) ([1]; donor sixteen): 4999 SFC/10^6 PBMC
- CTL response [2]: Y

Sequence: EPMSIYVYAL
- MSE (MHC stabilization efficiency) (HLA B7): + (+ = 51-99%)

Sequence: FPDLFCLPL (human cytomegalovirus gH CTL epitope peptide)
- MSE (MHC stabilization efficiency) (HLA B7): +++ (+++ = 200-300%)

Sequence: GRCQMLDRR (human cytomegalovirus gH CTL epitope peptide)
- MSE (MHC stabilization efficiency) (HLA B27): − (− = 0-50%)

Sequence: IMKDKNTPF (human cytomegalovirus IE2 CTL epitope peptide)
- MSE (MHC stabilization efficiency) (HLA B8): +++ (+++ = 200-300%)

Sequence: KARAKKDEL (human cytomegalovirus IE1 CTL epitope peptide)
- MSE (MHC stabilization efficiency) (HLA B7): −/− (− = 0-50%)
- MSE (MHC stabilization efficiency) (HLA B8): −/− (− = 0-50%)
- ELISPOT Responses (SFC/10^6 PBMC) ([1]; donor eleven): 235 SFC/10^6 PBMC
- ELISPOT Responses (SFC/10^6 PBMC) ([1]; donor four): 231 SFC/10^6 PBMC

Sequence: KARDHLAVL (human cytomegalovirus pp150 CTL epitope peptide)
- MSE (MHC stabilization efficiency) (HLA B7): +++ (+++ = 200-300%)
- ELISPOT Responses (SFC/10^6 PBMC) ([1]; donor four): MB(975) SFC/10^6 PBMC

Sequence: LCPKSIPGL
- MSE (MHC stabilization efficiency) (HLA B8): − (− = 0-50%)

Sequence: MPRCLFAGPL (human cytomegalovirus gH CTL epitope peptide)
- MSE (MHC stabilization efficiency) (HLA B7): +++ (+++ = 200-300%)

Sequence: NVRRSWEEL (human cytomegalovirus pp150 CTL epitope peptide)
- MSE (MHC stabilization efficiency) (HLA B7): ++ (++ = 100-199%)
- ELISPOT Responses (SFC/10^6 PBMC) ([1]; donor five): 274 SFC/10^6 PBMC
- ELISPOT Responses (SFC/10^6 PBMC) ([1]; donor four): 1431 SFC/10^6 PBMC

Sequence: PRKKKSKRI (human cytomegalovirus IE2 CTL epitope peptide)
- MSE (MHC stabilization efficiency) (HLA B8): − (− = 0-50%)

Sequence: QARLTVSGL
- MSE (MHC stabilization efficiency) (HLA B7): +++ (+++ = 200-300%)
- ELISPOT Responses (SFC/10^6 PBMC) ([1]; donor four): MB(1116) SFC/10^6 PBMC

Sequence: QIKVRVDMV (human cytomegalovirus IE1 CTL epitope peptide)
- MSE (MHC stabilization efficiency) (HLA B8): + (+ = 51-99%)
- ELISPOT Responses (SFC/10^6 PBMC) ([1]; donor eleven): 2425 SFC/10^6 PBMC
- ELISPOT Responses (SFC/10^6 PBMC) ([1]; donor epsilon): 2848 SFC/10^6 PBMC
- ELISPOT Responses (SFC/10^6 PBMC) ([1]; donor one): 475 SFC/10^6 PBMC
- ELISPOT Responses (SFC/10^6 PBMC) ([1]; donor sixteen): 2251 SFC/10^6 PBMC
- CTL response [2]: Y

Sequence: QPKRRRHRQ
- MSE (MHC stabilization efficiency) (HLA B8): − (− = 0-50%)

Sequence: RHRIKEHML (human cytomegalovirus IE1 CTL epitope peptide)
- MSE (MHC stabilization efficiency) (HLA B8): − (− = 0-50%)

Sequence: RRDHSLERL (human cytomegalovirus gH CTL epitope peptide)
- MSE (MHC stabilization efficiency) (HLA B27): − (− = 0-50%)

Sequence: RRIEEICMK (human cytomegalovirus IE1 CTL epitope peptide) [reference compound]
- MSE (MHC stabilization efficiency) (HLA B27): − (− = 0-50%)

Sequence: RRKMMYMCY (human cytomegalovirus IE1 CTL epitope peptide)
- MSE (MHC stabilization efficiency) (HLA B27): + (+ = 51-99%)

Sequence: RRRHRQDAL
- MSE (MHC stabilization efficiency) (HLA B8): + (+ = 51-99%)
- MSE (MHC stabilization efficiency) (HLA B27): ++ (++ = 100-199%)
- ELISPOT Responses (SFC/10^6 PBMC) ([1]; donor eleven): 215 SFC/10^6 PBMC
- ELISPOT Responses (SFC/10^6 PBMC) ([1]; donor sixteen): 71 SFC/10^6 PBMC

Sequence: SPRTHYLML (human cytomegalovirus gH CTL epitope peptide)
- MSE (MHC stabilization efficiency) (HLA B7): +++ (+++ = 200-300%)

Sequence: SPRTHYLMLL (human cytomegalovirus gH CTL epitope peptide)
- MSE (MHC stabilization efficiency) (HLA B7): +++ (+++ = 200-300%)

Sequence: SPWAPTAPL (human cytomegalovirus pp150 CTL epitope peptide)
- MSE (MHC stabilization efficiency) (HLA B7): +++ (+++ = 200-300%)
- ELISPOT Responses (SFC/10^6 PBMC) ([1]; donor four): MB(180) SFC/10^6 PBMC

Sequence: TPMLLIFGHL (human cytomegalovirus gH CTL epitope peptide)
- MSE (MHC stabilization efficiency) (HLA B7): ++ (++ = 100-199%)

Sequence: TPRVYYQTL (human cytomegalovirus US11 CTL epitope peptide)
- MSE (MHC stabilization efficiency) (HLA B7): +++ (+++ = 200-300%)

Sequence: TRVKRNVKK (human cytomegalovirus pp50 CTL epitope peptide)
- MSE (MHC stabilization efficiency) (HLA B27): − (− = 0-50%)

Sequence: VLCPKNMII [reference compound]
- MSE (MHC stabilization efficiency) (HLA B8): − (− = 0-50%)

Sequence: VMKRRIEEI (human cytomegalovirus IE1 CTL epitope peptide)
- MSE (MHC stabilization efficiency) (HLA B8): + (+ = 51-99%)

Sequence: WPRERAWAL (human cytomegalovirus pp150 CTL epitope peptide)
- MSE (MHC stabilization efficiency) (HLA B7): +++ (+++ = 200-300%)
- MSE (MHC stabilization efficiency) (HLA B8): ++ (++ = 100-199%)
- ELISPOT Responses (SFC/10^6 PBMC) ([1]; donor sixteen): TC(67) SFC/10^6 PBMC

Sequence: YRIQGKLEY
- MSE (MHC stabilization efficiency) (HLA B27): − (− = 0-50%)
- ELISPOT Responses (SFC/10^6 PBMC) ([1]; donor sixteen): TC(307) SFC/10^6 PBMC
